{
  "source": "patent US20030171400A1",
  "about": "“Heterocyclic side chain containing metalloprotease inhibitors” (priority 2000, published 2003)",
  "format_in_all_cases": "in vivo",
  "key": {"[1]": {"system": "human subject suffering from osteoarthritis", "experiment": "Example B: capsule treatment of a subject suffering from osteoarthritis", "conditions": "capsule containing 70 mg daily for 5 years, 90 kg human", "description": "A capsule for oral administration, according to the present invention, is made comprising:\nA human subject weighing 90 kg (198 lbs.), suffering from osteoarthritis, is treated by a method of this invention. Specifically, for 5 years, a capsule containing 70 mg of the compound of Example 3 is administered daily to said subject."}, "[2]": {"system": "human subject suffering from rheumatoid arthritis", "experiment": "Example A: tablet treatment of a subject suffering from rheumatoid arthritis", "conditions": "tablet with 15 mg compound, three tablets per day orally for 2 years, 60 kg human", "description": "A tablet composition for oral administration, according to the present invention, is made comprising:\nA human subject weighing 60 kg (132 lbs), suffering from rheumatoid arthritis, is treated by a method of this invention. Specifically, for 2 years, a regimen of three tablets per day is administered orally to said subject."}, "asthma sufferer": {"system": "asthma sufferer", "experiment": "Example E: inhalation aerosol for asthma", "conditions": "5.0% w/v inhalation aerosol, 0.01 mL sprayed into the mouth while inhaling", "description": "An inhalation aerosol composition, according to the present invention, is made comprising: An asthma sufferer sprays 0.01 mL via a pump actuator into the mouth while inhaling."}},
  "data": [
    {"smiles": "CC(C)(C)OC(=O)N1CCC(C(NS(=O)(=O)c2ccc(Oc3ccccc3)cc2)C(=O)O)CC1", "note": "(stereo not drawn) [Example 3, 4-[Carboxy-(4-phenoxy-benzenesulfonylamino)-methyl]-piperidine-1-carboxylic acid tert-butyl ester]", "values": [
      {"measurement": "erosion/fibrillation of the articular cartilage via x-ray, arthroscopy and/or MRI at the end of treatment", "setting": "[1]", "result": "no further advancement of erosion/fibrillation of the articular cartilage"}
    ]},
    {"smiles": "COCCOC(=O)N1CCC(C(NS(=O)(=O)c2ccc(-c3ccc(OC)cc3)cc2)C(=O)O)CC1", "note": "(stereo not drawn) [Example 31, 4-[Carboxy-(4′-methoxy-biphenyl-4-sulfonylamino)-methyl]-piperidine-1-carboxylic acid 2-methoxy-ethyl ester]", "values": [
      {"measurement": "patient examination at the end of the treatment period (inflammation, mobility, pain)", "setting": "[2]", "result": "reduced inflammation, and improved mobility without concomitant pain"}
    ]},
    {"smiles": "COc1ccc(-c2ccc(S(=O)(=O)NC3(C(=O)O)CCNCC3)cc2)cc1", "note": "[Example 56, 4-(4′-Methoxy-biphenyl-4-sulfonylamino)-piperidine-4-carboxylic acid]", "values": [
      {"measurement": "asthma symptoms", "setting": "asthma sufferer", "result": "Asthma symptoms are diminished"}
    ]}
  ]
}
